From patent US12084698B2, “Virus-like particles and use thereof” (priority 2018, dated 2024)

Key:
[1] = test system: EGxxFP reporter construct in HEK293T EGxxFP cells; assay: SSA-EGFP (EGxxFP) reporter experiment, flow cytometry of GFP-positive cells; format: cell-based, human; conditions: VLPs prepared at 0, 3, 30, 300 nM AP21967; 5×10^4 cells; 3 days
Description: The HEK293T EGxxFP cells were seeded on a 48-well plate at 2.5×10^4 to 5.0×10^4 cells/well. On the next day, the VLP solution was added thereto, and then after 3 days, the fluorescence of EGFP was analyzed using an LSR3 flow cytometer.
FIG. 2 is a schematic view illustrating an SSA-EGFP (hereinafter, called “EGxxFP” in some cases) reporter experiment. As cells, HEK293T cells were used which constantly express sgRNA targeting the human Dystrophin (DMD) gene and have genome into which the EGxxFP reporter construct (SEQ ID NO: 21) was inserted. The EGxxFP reporter construct is a construct designed by inserting a sequence including the target sequence of the sgRNA into the EGFP cDNA sequence, so that a functional EGFP protein is not expressed.
Then, the cleaved EGFP cDNA is repaired by single-strand annealing (SSA). As a result, functional EGFP is expressed, and the fluorescence of EGFP can be observed. In this experimental system, by quantifying the fluorescence of EGFP in the cells by using a flow cytometer, it is possible to evaluate the target gene cleavage efficiency (genome editing efficiency) of the Cas9 protein in cell populations.
Then, the prepared VLPs (15 μL) were introduced into the HEK293T EGxxFP reporter cells (5×10^4 cells expressing sgRNA). Subsequently, after 3 days, the proportion of GFP-positive cells was analyzed with a flow cytometer.

[2] = test system: DNA (700 bp) including a dystrophin target sequence; assay: In vitro DNA cleavage activity of VLP lysate; format: biochemical, human; conditions: VLPs prepared in presence or absence of AP21967
Description: Thereafter, in order to test the amount of the Cas9 protein contained in VLPs, in vitro DNA cleavage activity was measured. Specifically, Lysis buffer was added to each of the concentrated VLPs, and the mixture was left to stand on ice for 10 minutes so that the VLPs were lysed.
After the reaction, in order to remove sgRNA, RNase A was added thereto and reacted at 37° C. for 30 minutes. Furthermore, in order to remove proteins, proteinase K was added thereto and reacted at 50° C. for 20 minutes.
Then, these samples were subjected to electrophoresis using 2200 TapeStation (high sensitivity D1000 TapeScreen, Agilent Technologies, Inc.), and the proportion of cleaved DNA including the dystrophin target sequence was measured.

DMD gene = assay: T7EI assay in HEK293T EGxxFP cells expressing sgRNA DMD #1; format: cell-based, human; conditions: VLPs prepared in presence or absence of AP21967
Description: By using MonoFas Genomic DNA Extraction kit (GL Sciences Inc.), genomic DNA was recovered from the cultured cells according to the protocol. Then, PCR was performed using 100 ng of the genomic DNA, primers for the regions to be amplified, and PrimeSTAR GXL DNA Polymerase (Takara Bio Inc.), and the PCR product was purified using Wizard SV Gel and PCR Clean-up System (Promega Corporation).
Subsequently, 400 ng of the PCR product was thermally denatured in NEBuffer 2.1 (New England Biolabs) at 95° C. for 5 minutes and then reannealed by slow cooling. The PCR product was cooled to 85° C. from 95° C. at −2° C./sec and then to 25° C. from 85° C. at −0.1° C./sec. Subsequently, 10 units of T7 endonuclease I (T7EI) enzyme was added thereto and reacted at 37° C. for 15 minutes. Thereafter, 6 mM of EDTA was added thereto so that the reaction stopped. Then, the cleavage products were analyzed using DS1000 High Sensitivity Screen Tape and Tape Station 2200 (Agilent Technologies, Inc.).
Then, the cleavage activity for the target DMD gene on the genome was measured by T7EI assay.
After 3 days, genomic DNA was extracted from each of the cells. Subsequently, the target region of the DMD gene on the genome was amplified by PCR. Thereafter, the PCR product was purified using columns, and by using 400 ng of the obtained DNA, mutation introduction efficiency was measured by T7EI assay.

HIV protease = HIV protease (Human immunodeficiency virus type 1 group M subtype B, UniProt P04585); conditions: Darunavir added to cells in preparing VLPs
Description: First, in the presence or absence of Darunavir (HIV protease inhibitor), VLPs (FIGS. 1(a) and 1(b)) were prepared which were constituted with wild-type Gag-Pol^HIV or FKBP12-Gag-Pol^HIV derived from HIV and encapsulated a Cas9 protein fused with an FRB domain (hereinafter, called “FRB-Cas9 protein” in some cases).
Subsequently, FKBP12-Gag-Pol^HIV and the HA-tagged FRB-Cas9 protein in each of the above VLPs were quantified by Western blotting.

SMILES	genome editing efficiency (proportion of GFP-positive cells) [1]	encapsulation of Cas9 in VLPs on addition of AP21967 [2]	encapsulation of Cas9 in VLPs on addition of AP21967 (DMD gene)	cleavage of Gag protein and degradation of Cas9 protein in VLPs (HIV protease)
CO[C@H]1[C@@H](O)[C@H](C)C[C@H](C)/C=C/C=C/C=C(\C)[C@@H](c2c[nH]c3c(C)cccc23)C[C@@H]2CC[C@@H](C)[C@@](O)(O2)C(=O)C(=O)N2CCCC[C@H]2C(=O)O[C@H]([C@H](C)C[C@@H]2CC[C@@H](O)[C@H](OC)C2)C[C@H](O)[C@H](C)/C=C(\C)[C@H]1O [AP21967, C-16-(S)-7-methylindole rapamycin]	increases depending on the AP21967 concentration	more efficiently encapsulated	more efficiently encapsulated	
CC(C)CN(C[C@@H](O)[C@H](Cc1ccccc1)NC(=O)O[C@H]1CO[C@H]2OCC[C@H]21)S(=O)(=O)c1ccc(N)cc1 [Darunavir]				inhibited
